Converted amounts (≈) assume the structure as drawn. “And” between values parts separate entries of the source, which are not always exact repeats. Equal values may be shown once.
How the values were obtained:
[1] = species on record: Oryctolagus cuniculus; assay: Effect on intraocular pressure in left eye was tested by using transition ocular hypertension model at basal condition; format: functional
[2] = species on record: Oryctolagus cuniculus; assay: Effect on intraocular pressure in left eye was tested by using transition ocular hypertension model at 0 min.; format: functional
[3] = species on record: Oryctolagus cuniculus; assay: Effect on intraocular pressure in left eye was tested by using transition ocular hypertension model at 20 min.; format: functional
[4] = species on record: Oryctolagus cuniculus; assay: Effect on intraocular pressure in right eye was tested by using transition ocular hypertension model at 0 min.; format: functional
[5] = molecular target: Carbonic anhydrase; format: protein assay
Description: Inhibition of Carbonic anhydrase enzyme in rabbits

[6] = species on record: Oryctolagus cuniculus; assay: Effect on intraocular pressure in left eye was tested by using transition ocular hypertension model at 40 min.; format: functional
[7] = species on record: Oryctolagus cuniculus; assay: Effect on intraocular pressure in right eye was tested by using transition ocular hypertension model at 10 min.; format: functional
[8] = species on record: Oryctolagus cuniculus; assay: Effect on intraocular pressure in right eye was tested by using transition ocular hypertension model at basal condition; format: functional
[9] = species on record: Oryctolagus cuniculus; assay: Effect on intraocular pressure in right eye was tested by using transition ocular hypertension model at 40 min.; format: functional
[10] = species on record: Oryctolagus cuniculus; assay: Effect on intraocular pressure in left eye was tested by using transition ocular hypertension model at 10 min.; format: functional
[11] = species on record: Oryctolagus cuniculus; assay: Effect on intraocular pressure in right eye was tested by using transition ocular hypertension model at 20 min.; format: functional
[12] = physchem; details: phosphate buffer
Description: Solubility (in phosphate buffer)

[13] = buffer
Description: Solubility (in phosphate buffer)

[14] = test system: Oryctolagus cuniculus; assay: Effect on intraocular pressure in left eye was tested by using transition ocular hypertension model at 20 min. (after 4 hr administration); format: functional
[15] = test system: Oryctolagus cuniculus; assay: Effect on intraocular pressure in right eye was tested by using transition ocular hypertension model at 40 min. (after 8 hr administration); format: functional
[16] = test system: Oryctolagus cuniculus; assay: Effect on intraocular pressure in left eye was tested by using transition ocular hypertension model at 40 min. (after 8 hr administration); format: functional
[17] = test system: Oryctolagus cuniculus; assay: Effect on intraocular pressure in right eye was tested by using transition ocular hypertension model at 10 min. (after 4 hr administration); format: functional
[18] = test system: Oryctolagus cuniculus; assay: Effect on intraocular pressure in left eye was tested by using transition ocular hypertension model at basal condition (after 8 hr administration); format: functional
[19] = test system: Oryctolagus cuniculus; assay: Effect on intraocular pressure in left eye was tested by using transition ocular hypertension model at 0 min. (after 8 hr administration); format: functional
[20] = test system: Oryctolagus cuniculus; assay: Effect on intraocular pressure in right eye was tested by using transition ocular hypertension model at 40 min. (after 4 hr administration); format: functional
[21] = test system: Oryctolagus cuniculus; assay: Effect on intraocular pressure in right eye was tested by using transition ocular hypertension model at 20 min. (after 8 hr administration); format: functional
[22] = test system: Oryctolagus cuniculus; assay: Effect on intraocular pressure in right eye was tested by using transition ocular hypertension model at basal condition (after 8 hr administration); format: functional
[23] = test system: Oryctolagus cuniculus; assay: Effect on intraocular pressure in right eye was tested by using transition ocular hypertension model at basal condition (after 4 hr administration); format: functional
[24] = test system: Oryctolagus cuniculus; assay: Effect on intraocular pressure in left eye was tested by using transition ocular hypertension model at basal condition (after 4 hr administration); format: functional
[25] = test system: Oryctolagus cuniculus; assay: Effect on intraocular pressure in right eye was tested by using transition ocular hypertension model at 0 min (after 8 hr administration); format: functional
[26] = test system: Oryctolagus cuniculus; assay: Effect on intraocular pressure in left eye was tested by using transition ocular hypertension model at 0 min. (after 4 hr administration); format: functional
[27] = test system: Oryctolagus cuniculus; assay: Effect on intraocular pressure in right eye was tested by using transition ocular hypertension model at 0 min (after 4 hr administration); format: functional
[28] = test system: Oryctolagus cuniculus; assay: Effect on intraocular pressure in right eye was tested by using transition ocular hypertension model at 10 min. (after 8 hr administration); format: functional
[29] = test system: Oryctolagus cuniculus; assay: Effect on intraocular pressure in left eye was tested by using transition ocular hypertension model at 10 min. (after 8 hr administration); format: functional
[30] = test system: Oryctolagus cuniculus; assay: Effect on intraocular pressure in left eye was tested by using transition ocular hypertension model at 20 min. (after 8 hr administration); format: functional
[31] = test system: Oryctolagus cuniculus; assay: Effect on intraocular pressure in left eye was tested by using transition ocular hypertension model at 10 min. (after 4 hr administration); format: functional
[32] = test system: Oryctolagus cuniculus; assay: Effect on intraocular pressure in left eye was tested by using transition ocular hypertension model at 40 min. (after 4 hr administration); format: functional
[33] = test system: Oryctolagus cuniculus; assay: Effect on intraocular pressure in right eye was tested by using transition ocular hypertension model at 20 min. (after 4 hr administration); format: functional

IC50 [5]	solubility [12]	Compound	IOP [1]	IOP [2]	IOP [3]	IOP [4]	IOP [6]	IOP [7]	IOP [8]	IOP [9]	IOP [10]	IOP [11]	also measured
390 nM	1.3 mM (≈ 456 µg/mL)	CCCCCOC(=O)CCC(=O)Nc1nnc(S(N)(=O)=O)s1	15.67 mmHg	15.67 mmHg	21.33 mmHg	15 mmHg	18.83 mmHg	22.67 mmHg	15.83 mmHg	17.83 mmHg	24.5 mmHg	20 mmHg	
370 nM	3.7 mM (≈ 1240 µg/mL)	CCC(C)OC(=O)CCC(=O)Nc1nnc(S(N)(=O)=O)s1 (configuration not stated)	15.33 mmHg	15.5 mmHg	21.17 mmHg	14.67 mmHg	17.17 mmHg	21.5 mmHg	15.67 mmHg	16.67 mmHg	25.67 mmHg	19 mmHg	
910 nM	< 1 mM	COC(=O)CCCCCCCC(=O)Nc1nnc(S(N)(=O)=O)s1											
	25 mM (≈ 7710 µg/mL)	NS(=O)(=O)c1nnc(NC(=O)CCCCC(=O)O)s1	16.33 mmHg	16.17 mmHg and 22 mmHg	21.67 mmHg	16.33 mmHg	18 mmHg		16.83 mmHg	17.17 mmHg	25.17 mmHg	20 mmHg	
440 nM		NCCCCC(=O)Nc1nnc(S(N)(=O)=O)s1	15.5 mmHg	15.83 mmHg	21.5 mmHg	15 mmHg	17.33 mmHg	24 mmHg	15.83 mmHg	16.83 mmHg	26.17 mmHg	20.83 mmHg	S [13]: 8.8 mM
520 nM	31 mM (≈ 9120 µg/mL)	NS(=O)(=O)c1nnc(NC(=O)CCCC(=O)O)s1	15.5 mmHg	15.33 mmHg	22 mmHg	14.67 mmHg	17.83 mmHg	21.17 mmHg	15.5 mmHg	16.5 mmHg	25.5 mmHg	19 mmHg	
230 nM	< 1 mM	COC(=O)CCCCC(=O)Nc1nnc(S(N)(=O)=O)s1											
940 nM	16 mM (≈ 4480 µg/mL)	COC(=O)CC(=O)Nc1nnc(S(N)(=O)=O)s1	16.33 mmHg	16.17 mmHg	22.5 mmHg	15.87 mmHg	19.17 mmHg	23.17 mmHg	16.17 mmHg	17 mmHg	27.17 mmHg	19.67 mmHg	
550 nM	3.2 mM (≈ 942 µg/mL)	COC(=O)CCC(=O)Nc1nnc(S(N)(=O)=O)s1	15.83 mmHg	16.17 mmHg	20.17 mmHg	15.17 mmHg	16.67 mmHg	25.33 mmHg	15.67 mmHg	16.5 mmHg	25.5 mmHg	19.5 mmHg	
		CC(C)(C)NC[C@H](O)COc1nsnc1N1CCOCC1 [TIMOLOL]	18.53 mmHg	16.84 mmHg	21.97 mmHg	15.77 mmHg	18.77 mmHg	18.57 mmHg	18.53 mmHg	18.77 mmHg	25.84 mmHg	19.38 mmHg	
	8.9 mM (≈ 2740 µg/mL)	CCOC(=O)CCC(=O)Nc1nnc(S(N)(=O)=O)s1	15.33 mmHg	15.5 mmHg	20.67 mmHg	13.33 mmHg	17.67 mmHg	20.33 mmHg	15.33 mmHg	15.67 mmHg	25.67 mmHg	17.33 mmHg	
480 nM	21.6 mM (≈ 7570 µg/mL)	NS(=O)(=O)c1nnc(NC(=O)CCCCCCCC(=O)O)s1	16 mmHg	16 mmHg	20.67 mmHg	16.17 mmHg	17.5 mmHg	25.17 mmHg	15.83 mmHg	17 mmHg	26.5 mmHg	19.5 mmHg	
520 nM		CCCCCCCCCCCCOC(=O)CCC(=O)Nc1nnc(S(N)(=O)=O)s1											
310 nM	1.4 mM (≈ 510 µg/mL)	CCCCCOC(=O)CCC(=O)/N=c1/sc(S(N)(=O)=O)nn1C	15.83 mmHg	15.33 mmHg	20.67 mmHg	15.5 mmHg	17.83 mmHg	20.67 mmHg	15.67 mmHg	22 mmHg	24 mmHg	25.17 mmHg	
450 nM	7.3 mM (≈ 2250 µg/mL)	COC(=O)CCC(=O)/N=c1/sc(S(N)(=O)=O)nn1C	15.33 mmHg	16 mmHg	21.5 mmHg	14.83 mmHg	17.83 mmHg	24.67 mmHg	15.5 mmHg	17.33 mmHg	25.83 mmHg	20.83 mmHg	
	60.7 mM (≈ 17000 µg/mL)	NS(=O)(=O)c1nnc(NC(=O)CCC(=O)O)s1	15.5 mmHg	15.5 mmHg	21.67 mmHg	14.33 mmHg	19 mmHg	19.33 mmHg	15.67 mmHg	15.67 mmHg	26 mmHg	17.17 mmHg	IOP [14]: 22 mmHg; IOP [15]: 16.5 mmHg; IOP [16]: 18.67 mmHg; IOP [17]: 18.5 mmHg; IOP [18]: 15.67 mmHg; IOP [19]: 15.67 mmHg; IOP [20]: 16.33 mmHg; IOP [21]: 18.67 mmHg; IOP [22]: 15.67 mmHg; IOP [23]: 15.5 mmHg; IOP [24]: 15.5 mmHg; IOP [25]: 14.83 mmHg; IOP [26]: 15.33 mmHg; IOP [27]: 13.33 mmHg; IOP [28]: 22.23 mmHg; IOP [29]: 26.17 mmHg; IOP [30]: 21.5 mmHg; IOP [31]: 25.83 mmHg; IOP [32]: 18.83 mmHg; IOP [33]: 18.33 mmHg
910 nM	11.5 mM (≈ 3550 µg/mL)	COC(=O)CCCC(=O)Nc1nnc(S(N)(=O)=O)s1											

Reference: ChEMBL document CHEMBL1125487, “Acetazolamide-like carbonic anhydrase inhibitors with topical ocular hypotensive activity” (J Med Chem, 1992)
